For orientation: inhibition means the share of the control response that was lost under treatment. Low readings indicate a weak effect, high ones a strong effect. For orientation: IC50 means the point on the concentration scale where inhibition reaches its midpoint. The low end stands for inhibition by little substance, the high end for a need for much substance.

Experimental findings from patent US7612200B2, “Inhibitors of protein kinases” (Locus Pharmaceuticals, Inc., priority 2004, dated 2009) are described below.

Some results are limits rather than exact numbers.

The target in experiment [1] is Lck (Homo sapiens, UniProt P06239). Kind of experiment: Kinase activity at ATP Km,app, Lck. The class given is biochemical. Particulars: 40 min, compound 2 μM. The procedure: (§1) Lck Kinase Activity: In a final reaction volume of 25 ml, Lck (h) (5-10 mU) is incubated with 50 mM Tris pH 7.5, 0.1 mM EGTA, 0.1 mM Na3VO4, 250 μM KVEKIGEGTYGVVYK (Cdc2 peptide), 10 mM MgAcetate and [γ-^33P-ATP] (specific activity approx. 500 cpm/pmol, concentration as required). The reaction is initiated by the addition of the MgATP mix. After incubation for 40 minutes at room temperature, the reaction is stopped by the addition of 5 μl of a 3% phosphoric acid solution. 10 μl of the reaction is then spotted onto a P30 filtermat and washed three times for 5 minutes in 75 mM phosphoric acid and once in methanol prior to drying and scintillation counting.

Experiment [2] has as its target PKC-alpha (Homo sapiens, UniProt P17252). Kind of experiment: Kinase activity at ATP Km,app, PKC-alpha. In kind it is biochemical. The conditions noted are these: 40 min, compound 2 μM. On the procedure:
PKCα Kinase Activity: In a final reaction volume of 25 μl, PKCα (h) (5-10 mU) is incubated with 20 mM HEPES pH 7.4, 0.03% Triton X-100, 0.1 mM CaCl2, 0.1 mg/ml phosphatidylserine, 10 μg/ml diacylglycerol, 0.1 mg/ml histone Hi, 10 mM MgAcetate and [γ-^33P-ATP] (specific activity approx. 500 cpm/pmol, concentration as required). The reaction is initiated by the addition of the MgATP mix. After incubation for 40 minutes at room temperature, the reaction is stopped by the addition of 5 μl of a 3% phosphoric acid solution. 10 μl of the reaction is then spotted onto a P30 filtermat and washed three times for 5 minutes in 75 mM phosphoric acid and once in methanol prior to drying and scintillation counting.

Experiment [3] addresses IGF1R (Homo sapiens, UniProt P08069). Kind of experiment: Kinase activity at ATP Km,app, IGF1R. The class given is biochemical. The conditions noted are these: 40 min, compound 2 μM. The procedure:
as §1, with “IGF-1R” for “Lck”, “Activity” for “Activity:”, “μl, IGF-1R” for “ml, Lck”, “Na3VO4, 0.1% β-mercaptoethanol,” for “Na3VO4,”, “KKKSPEGYVNIEFG, 10 mM MnCl2,” for “KVEKIGEGTYGVVYK (Cdc2 peptide),”

Experiment [4] concerns MCF-7. Kind of experiment: Cell growth inhibition, MCF-7. The class given is cell-based. The conditions noted are these: Homo sapiens, MCF7; MCF-7 cell line; 24 hours; viability by WST-1 or Alamar Blue. The procedure: (§2) The compounds of Examples 1 and 2 were also tested for cell growth inhibition activity a gains two cell lines, MCF-7 and U266. […], suspended in RPMI 1640 media, supplemented with 10% FBS, were pipetted into 96-well plates at a density of 10,000 cells per milliliter in a volume of […] per well. Cells were allowed to equilibrate overnight at 37 C in 5% CO2. Cells were then incubated in the presence of the test compound at a concentrations ranging from 0.03 μM to 10 μM (at ½ log dilutions) for 24 hours. After the incubation period, cells were assessed for viability using either WST-1 (Biovision) or Alamar Blue (BioSourse). Values from treated cells were compared to values from control cells and values expressed as percent control.

For experiment [5], the target named is Akt1 (Homo sapiens, UniProt P31749). Kind of experiment: Kinase activity at ATP Km,app, Akt1. The class given is biochemical. Particulars: compound 2 μM.
The subject of experiment [6] is U266. Kind of experiment: Cell growth inhibition, U266. The class given is cell-based. The conditions noted are these: Homo sapiens, U-266; U266 cell line; 24 hours; viability by WST-1 or Alamar Blue. On the procedure:
as §2
(Formazan colour is commonly taken as a measure of viable cells.)

Experiment [7] has as its target T1, Flt3 (Homo sapiens, UniProt P36888).
T1 sequence (P36888 27-993): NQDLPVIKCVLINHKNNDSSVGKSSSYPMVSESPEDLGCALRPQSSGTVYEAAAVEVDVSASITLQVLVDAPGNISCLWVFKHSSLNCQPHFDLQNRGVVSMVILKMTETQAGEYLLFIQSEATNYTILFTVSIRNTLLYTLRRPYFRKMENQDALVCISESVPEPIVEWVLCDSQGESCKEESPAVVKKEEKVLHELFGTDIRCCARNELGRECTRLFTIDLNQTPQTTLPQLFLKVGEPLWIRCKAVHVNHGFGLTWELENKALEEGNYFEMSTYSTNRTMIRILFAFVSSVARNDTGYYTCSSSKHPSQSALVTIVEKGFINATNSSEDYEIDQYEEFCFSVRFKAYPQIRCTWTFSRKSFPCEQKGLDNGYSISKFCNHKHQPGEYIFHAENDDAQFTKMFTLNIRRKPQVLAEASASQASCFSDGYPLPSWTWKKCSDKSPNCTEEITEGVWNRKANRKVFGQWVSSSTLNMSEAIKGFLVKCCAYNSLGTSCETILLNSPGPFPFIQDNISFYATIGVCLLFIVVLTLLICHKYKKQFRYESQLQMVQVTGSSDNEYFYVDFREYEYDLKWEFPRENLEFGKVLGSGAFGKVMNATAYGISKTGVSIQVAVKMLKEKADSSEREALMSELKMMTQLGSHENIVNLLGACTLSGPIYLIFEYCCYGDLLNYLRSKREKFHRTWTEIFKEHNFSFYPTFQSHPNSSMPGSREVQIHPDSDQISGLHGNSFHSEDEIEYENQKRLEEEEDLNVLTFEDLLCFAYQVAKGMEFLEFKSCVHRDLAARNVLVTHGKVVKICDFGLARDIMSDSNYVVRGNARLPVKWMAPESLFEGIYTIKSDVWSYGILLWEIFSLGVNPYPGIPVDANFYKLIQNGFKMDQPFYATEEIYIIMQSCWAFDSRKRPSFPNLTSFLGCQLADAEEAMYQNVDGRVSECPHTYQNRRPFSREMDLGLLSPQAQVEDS
Nature of the experiment: Kinase activity at ATP Km,app, Flt3. The class given is biochemical. Particulars: 40 min, compound 2 μM. The procedure: as §1, with “Flt3” for “Lck”, “μl, Flt3” for “ml, Lck”, “with 8 mM MOPS pH 7.0, 0.2 mM EDTA,” for “with”, “50” for “50 mM Tris pH 7.5, 0.1 mM EGTA, 0.1 mM Na3VO4, 250”, “EAIYAAPFAKKK,” for “KVEKIGEGTYGVVYK (Cdc2 peptide),”, “[…]” for “μl”

For experiment [8], the target named is FGFR1 (Homo sapiens, UniProt P11362). Kind of experiment: Kinase activity at ATP Km,app, FGFR1. The class given is biochemical. Particulars: compound 2 μM.
FGFR1, sequence (P11362 22-822, species assumed): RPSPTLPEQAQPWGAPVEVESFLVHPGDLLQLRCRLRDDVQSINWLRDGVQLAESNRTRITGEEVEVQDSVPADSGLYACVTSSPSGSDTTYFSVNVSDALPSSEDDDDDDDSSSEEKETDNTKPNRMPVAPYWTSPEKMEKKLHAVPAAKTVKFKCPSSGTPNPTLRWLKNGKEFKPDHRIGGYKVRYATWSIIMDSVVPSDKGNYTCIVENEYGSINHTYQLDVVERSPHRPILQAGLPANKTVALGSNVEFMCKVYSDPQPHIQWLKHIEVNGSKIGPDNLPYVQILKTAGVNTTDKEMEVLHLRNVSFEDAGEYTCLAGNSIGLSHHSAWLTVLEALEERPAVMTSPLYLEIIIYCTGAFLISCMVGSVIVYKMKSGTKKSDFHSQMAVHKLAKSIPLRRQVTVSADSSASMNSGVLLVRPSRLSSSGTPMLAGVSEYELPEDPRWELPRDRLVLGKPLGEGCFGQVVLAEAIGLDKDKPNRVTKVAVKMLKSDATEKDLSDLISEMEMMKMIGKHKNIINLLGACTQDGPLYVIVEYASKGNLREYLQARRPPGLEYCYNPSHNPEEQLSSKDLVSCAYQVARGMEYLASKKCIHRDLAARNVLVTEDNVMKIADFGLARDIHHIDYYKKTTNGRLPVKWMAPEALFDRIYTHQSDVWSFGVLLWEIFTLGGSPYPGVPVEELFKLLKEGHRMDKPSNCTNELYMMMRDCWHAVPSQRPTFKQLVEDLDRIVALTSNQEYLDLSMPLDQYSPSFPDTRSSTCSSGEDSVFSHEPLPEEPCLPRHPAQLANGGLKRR

Lck, sequence (P06239 whole entry): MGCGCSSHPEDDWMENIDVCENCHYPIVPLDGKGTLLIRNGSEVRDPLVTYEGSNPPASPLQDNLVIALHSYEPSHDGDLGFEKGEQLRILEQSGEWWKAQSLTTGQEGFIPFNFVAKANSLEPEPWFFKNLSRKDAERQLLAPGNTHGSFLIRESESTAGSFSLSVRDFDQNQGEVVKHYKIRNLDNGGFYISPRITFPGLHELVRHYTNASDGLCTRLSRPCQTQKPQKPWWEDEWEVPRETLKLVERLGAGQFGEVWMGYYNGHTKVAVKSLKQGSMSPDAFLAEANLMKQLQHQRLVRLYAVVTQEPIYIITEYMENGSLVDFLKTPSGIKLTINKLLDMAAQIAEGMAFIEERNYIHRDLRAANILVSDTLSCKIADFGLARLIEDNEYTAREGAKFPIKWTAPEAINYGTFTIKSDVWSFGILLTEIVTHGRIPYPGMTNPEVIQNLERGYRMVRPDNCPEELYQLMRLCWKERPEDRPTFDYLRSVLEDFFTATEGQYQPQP
IGF1R, sequence (P08069 31-1367): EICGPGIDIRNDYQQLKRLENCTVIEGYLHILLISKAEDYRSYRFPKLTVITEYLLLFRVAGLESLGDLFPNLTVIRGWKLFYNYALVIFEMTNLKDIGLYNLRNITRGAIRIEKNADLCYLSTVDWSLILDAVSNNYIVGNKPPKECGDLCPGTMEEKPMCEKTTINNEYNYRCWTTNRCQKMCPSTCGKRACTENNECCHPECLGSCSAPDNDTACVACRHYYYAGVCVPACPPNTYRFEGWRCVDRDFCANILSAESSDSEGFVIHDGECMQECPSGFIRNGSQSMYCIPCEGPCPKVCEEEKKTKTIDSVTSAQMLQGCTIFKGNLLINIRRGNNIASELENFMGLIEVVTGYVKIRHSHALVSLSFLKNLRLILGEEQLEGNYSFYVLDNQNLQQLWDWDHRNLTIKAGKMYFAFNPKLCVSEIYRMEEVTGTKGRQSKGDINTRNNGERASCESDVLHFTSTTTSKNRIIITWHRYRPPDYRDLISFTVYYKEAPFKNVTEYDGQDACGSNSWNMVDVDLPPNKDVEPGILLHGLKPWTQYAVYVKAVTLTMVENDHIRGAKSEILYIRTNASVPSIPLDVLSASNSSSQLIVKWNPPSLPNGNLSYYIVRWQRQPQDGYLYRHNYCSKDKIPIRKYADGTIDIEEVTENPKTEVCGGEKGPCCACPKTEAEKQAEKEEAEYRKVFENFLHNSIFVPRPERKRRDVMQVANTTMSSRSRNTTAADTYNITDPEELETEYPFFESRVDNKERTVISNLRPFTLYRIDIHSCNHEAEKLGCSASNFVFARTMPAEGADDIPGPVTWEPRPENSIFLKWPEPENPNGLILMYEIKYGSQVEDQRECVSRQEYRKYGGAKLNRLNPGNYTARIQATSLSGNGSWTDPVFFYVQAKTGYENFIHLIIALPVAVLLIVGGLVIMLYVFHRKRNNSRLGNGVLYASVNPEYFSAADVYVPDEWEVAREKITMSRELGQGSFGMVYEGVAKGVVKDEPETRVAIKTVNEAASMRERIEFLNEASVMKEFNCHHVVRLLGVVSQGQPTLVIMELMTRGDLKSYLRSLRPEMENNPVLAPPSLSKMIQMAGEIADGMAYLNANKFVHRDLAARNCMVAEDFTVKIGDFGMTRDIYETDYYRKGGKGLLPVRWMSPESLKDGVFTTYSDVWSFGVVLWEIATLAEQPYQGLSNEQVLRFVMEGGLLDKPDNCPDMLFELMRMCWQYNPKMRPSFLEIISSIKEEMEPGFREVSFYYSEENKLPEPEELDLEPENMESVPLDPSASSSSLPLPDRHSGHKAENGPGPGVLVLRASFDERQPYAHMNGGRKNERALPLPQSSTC
Akt1, sequence (P31749 whole entry, species assumed): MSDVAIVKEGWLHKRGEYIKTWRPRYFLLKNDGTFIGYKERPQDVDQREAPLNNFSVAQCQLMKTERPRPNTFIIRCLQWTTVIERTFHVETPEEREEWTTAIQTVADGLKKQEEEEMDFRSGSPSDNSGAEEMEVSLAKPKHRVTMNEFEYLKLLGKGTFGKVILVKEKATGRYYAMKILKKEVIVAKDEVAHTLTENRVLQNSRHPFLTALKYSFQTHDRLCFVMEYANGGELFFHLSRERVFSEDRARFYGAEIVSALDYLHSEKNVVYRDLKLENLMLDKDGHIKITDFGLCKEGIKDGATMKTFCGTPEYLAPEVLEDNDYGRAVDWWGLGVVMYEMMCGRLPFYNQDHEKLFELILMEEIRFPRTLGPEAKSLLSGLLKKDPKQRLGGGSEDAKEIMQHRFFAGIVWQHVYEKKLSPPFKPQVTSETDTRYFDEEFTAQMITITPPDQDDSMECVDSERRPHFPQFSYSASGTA

Turning to `CC(C)(C)c1cc(C(=O)N2CCNC(=O)C2)c(NC(=O)Nc2ccc(Oc3ccncc3)cc2)s1` [Example 2, 1-(5-tert-Butyl-3-(3-oxo-piperazine-1-carbonyl)thiophen-2-yl)-3-(4-(pyridin-4-yloxy)phenyl)urea], the inhibition at 2 µM in experiment [1] is 0 to 25%; in experiment [2], 0 to 25%; in experiment [3] it was 0 to 25%; in experiment [5], 0 to 25%; in experiment [7] it was 76 to 100%; in experiment [8], 0 to 25%. In addition, the IC50 in experiment [4] and in experiment [6] was less than 10 µM in each case.

Turning to `CC(C)(C)c1cc(C(=O)N2CCNS(=O)(=O)CC2)c(NC(=O)Nc2ccc(Oc3ccncc3)cc2)s1` [Example 1, 1-(5-tert-Butyl-3-(1,1-dioxo-1λ^6-[1,2,5]thiadiazepane-5-carbonyl)thiophen-2-yl)-3-(4-(pyridin-4-yloxy)phenyl)urea], the inhibition at 2 µM in experiment [1] was in the range of 0 to 25%; in experiment [2] it was 0 to 25%; in experiment [3] it was 0 to 25%; in experiment [5], 0 to 25%; in experiment [7] it was 76 to 100%; in experiment [8] it was 0 to 25%. Besides, the IC50 in experiment [4] and in experiment [6] was less than 10 µM throughout.

For the molecule `CC(C)(C)c1cc(C(=O)N2CCNC(=O)CC2)c(NC(=O)Nc2ccc(Oc3ccncc3)cc2)s1` [Example 4, 1-(5-tert-Butyl-3-(5-oxo-[1,4]diazepane-1-carbonyl)thiophen-2-yl)-3-(4-(pyridin-4-yloxy)phenyl)urea], the inhibition at 2 µM in experiment [1] fell in the range of 0 to 25%; in experiment [2] it was 0 to 25%; in experiment [3], 0 to 25%; in experiment [5], 0 to 25%; in experiment [7], 76 to 100%; in experiment [8], 26 to 50%.
